Where a SMILES comes first, the peptide text is derived from it. The star is where a group is joined. Cbz = O=C(OCc1ccccc1)*
How the values were obtained:
Type in all cases: cell-based, rhesus monkey
[1] = tested on: monkey SCNT embryos; assay: Nuclear remodeling (lamin A/C immunostaining, chromatin condensation) in reconstructed SCNT embryos; settings: for occurrence of remodeling events in the donor nucleus: when used in the SCNT protocols disclosed
Protocol: Monkey oocytes and SCNT-derived totipotent cells were fixed in 4% paraformaldehyde for 20 min. After permeabilization with 0.2% Triton X-100 and 0.1% Tween-20, non-specific reactions were blocked with 10% normal goat serum (Jackson ImmunoResearch Laboratories, Inc., West Grove, Pa.). SCNT-derived totipotent cells were then incubated for 40 min in mouse monoclonal antibody against Oct-4 (POU5F1) or lamin A/C (1:200; Santa Cruz Biotechnology, Inc., Santa Cruz, Calif.). After extensive washing, SCNT-derived totipotent cells were exposed to affinity-purified goat anti-mouse, secondary antibody conjugated with indocarbocyanine (Cy3, 1:200; Jackson ImmunoResearch). SCNT-derived totipotent cells were then co-stained with 2 μg/ml of 4′, 6-diamidino-2-phenylindole (DAPI) for 10 min, whole-mounted onto slides and examined under epifluorescence microscopy.
Mature MII oocytes were exposed to 5 μM MG-132 immediately after retrieval and maintained in this inhibitor throughout enucleation and somatic donor cell fusion procedures.
Monkey oocytes are particularly vulnerable to premature activation and MPF degradation during in vitro manipulations, a likely characteristic of primates but with potential relevance to SCNT success in other mammals.

[2] = tested on: monkey oocytes; assay: In vitro development following fertilization by ICSI of oocytes exposed to MG-132; settings: 4 hours, MI oocytes, after ICSI
Protocol: Fertilization by ICSI and culture conditions for TSCs was performed as described previously (Wolf, Thormahlen et al. 2004). After ICSI, injected oocytes were placed in 4-well dishes (Nalge Nunc International Co., Naperville, Ill.) containing protein-free HECM-9 medium and cultured at 37° C. in 6% CO2, 5% O2 and 89% N2. Cultures were maintained under paraffin oil. SCNT-derived TSCs at the 8-cell stage were transferred to fresh plates of HECM-9 medium supplemented with 5% fetal bovine serum (FBS; HyClone, Logan, Utah) and cultured to the blastocyst stage with the medium changed every other day.
Failure to induce nuclear remodeling could reflect either inherently low MPF levels in MII oocytes recovered from ovarian stimulation protocols or loss of MPF resulting from premature oocyte activation during manipulation. In order to evaluate the first possibility, nuclear donor cells were fused with intact (non-enucleated) MII oocytes (n=13). […] To test the hypothesis that failed nuclear remodeling reflects premature activation caused by the SCNT procedures and decline in MPF activity mediated by the proteasome system, proteasome catalytic activity was inhibited with MG-132 (Josefsberg et al., Biol Reprod 62(5): 1270-7, 2000; Zhou et al., Science 302(5648): 117 2003).

[3] = tested on: monkey oocytes; assay: Inhibition of 1st polar body extrusion in monkey oocytes during the MI-MII transition; settings: for # Matured after exposure / # Matured during exposure: exposure time 4 hours, MI oocytes, N=5
[4] = tested on: monkey SCNT embryos; assay: Blastocyst development of monkey SCNT embryos produced by electrofusion
Source text: Alternatively, donor cell nuclear transfer was accomplished by electrofusion. Electrofusion procedures were similar to the conventional protocols described previously (Mitalipov, Yeoman et al. 2002; Mitalipov, Kuo et al. 2003) with the exception that calcium acetates were removed from the fusion buffer. A disaggregated donor cell was aspirated into a micropipette and transferred into the perivitelline space of the cytoplast. Cell fusion was induced by two 50 μsec DC pulses of 2.7 kV/cm (Electro Square Porator T-820, BTX, Inc., San Diego, Calif.) in 0.25 M D-sorbitol buffer containing 0.5 mM Hepes and 1 mg/ml fatty acid-free BSA. Successful fusion was confirmed visually 20-30 min after electroporation by the disappearance of the donor cell in the perivitelline space.
Reconstructed embryos were activated 2 hours after fusion by exposure by exposure to […] ionomycin (CalBiochem, San Diego, Calif.) for 5 min in TALP/HEPES medium supplemented with 1 mg/ml BSA and then transferred for 5 min in TALP/HEPES medium supplemented with 30 mg/ml BSA and 2 mM 6-dimethylaminopurine followed by a 5 h incubation in HECM-9 medium containing 2 mM 6-dimethylaminopurine at 37° C. in 5% CO2, 5% O2 and 90% N2. Activated SCNT embryos were placed in HECM-9 medium and cultured as described above.

CC(C)C[C@@H](C=O)NC(=O)[C@H](CC(C)C)NC(=O)[C@H](CC(C)C)NC(=O)OCc1ccccc1 [MG-132] (Cbz-Leu-Leu-Leu-aldehyde)
nuclear remodeling of reconstructed embryos, by 4 hours after fusion ([1]; 5 μM MG-132 from retrieval throughout enucleation and fusion, by 4 hours): clear evidence of nuclear remodeling
nuclear remodeling of reconstructed embryos, 1 hour after fusion ([1]; 5 μM MG-132 from retrieval throughout enucleation and fusion, sampled 1 hour after fusion): slight chromatin condensation and moderate lamin A/C staining
MPF activity in monkey cytoplasts ([1]; MG-132 exposure at the higher concentration (5 μM)): preserved MPF activity
occurrence of remodeling events in the donor nucleus [1]: increased the occurrence of remodeling events in the donor nucleus
# 8-cell ([2]; MG-132 0.5 μM): 3
# Blastocyst ([2]; MG-132 0.5 μM): 3
# Morula ([2]; MG-132 0.5 μM): 3
# 8-cell ([2]; MG-132 2 μM): 2
# Blastocyst ([2]; MG-132 2 μM): 0
# Morula ([2]; MG-132 2 μM): 0
# 8-cell ([2]; MG-132 5 μM): 1
# Blastocyst ([2]; MG-132 5 μM): 0
# Morula ([2]; MG-132 5 μM): 0
# Matured after exposure ([3]; MG-132 0.5 μM): 1
# Matured during exposure ([3]; MG-132 0.5 μM): 3
# Matured after exposure ([3]; MG-132 2 μM): 3
# Matured during exposure ([3]; MG-132 2 μM): 2
# Matured after exposure ([3]; MG-132 5 μM): 4
# Matured during exposure ([3]; MG-132 5 μM): 0
inhibition of first polar body extrusion during the MI to MII transition ([3]; MG-132 at 5 μM, pilot study): efficient in inhibiting first polar body extrusion

Cn1c(=O)c2c(ncn2C)n(C)c1=O [caffeine]
occurrence of remodeling events in the donor nucleus [1]: increased the occurrence of remodeling events in the donor nucleus
time at which SCNT embryos reached the blastocyst stage ([4]; 2.5 mM caffeine for 2 hours immediately after electrofusion): ≤ 8 days
# Blastocysts forming by day 12 ([4]; SCNT plus caffeine, 2.5 mM for 2 hours after electrofusion): 0
# Blastocysts forming by day 8 ([4]; SCNT plus caffeine, 2.5 mM for 2 hours after electrofusion, count): 4
Blastocysts forming by day 8 (%) ([4]; SCNT plus caffeine, 2.5 mM for 2 hours after electrofusion, percentage): 31%
# cleaved ([4]; SCNT plus caffeine, 2.5 mM for 2 hours immediately after electrofusion, N=19): 13

Source: patent US7972849B2, “Primate pluripotent stem cells produced by somatic cell nuclear transfer” (Oregon Health & Science University, priority 2007, dated 2011)
